# Measurements reported in patent US9828630B2, “Methods of enhancing genetic diagnosis” (BioLamina AB, priority 2011, dated 2017).
# “Also recorded” adds a separate entry of the source.
# How the values were obtained:
# human ES cells on LN-521 = assay: Inhibition of survival assay on LN-521 (function blocking antibodies, pathway inhibitors); assay type: cell-based; conditions: medium contained bFGF, FIG. 16
# Protocol: (§1) The survival assay was performed as described for the cell adhesion assay above, except that the cells were left in the cell incubator for 24 hours. For inhibition of survival assay, the cells were kept in a medium with function blocking antibodies at the concentrations recommended by the manufacturer or pathway inhibitors at concentrations indicated in the text for 30 minutes, and then plated on the coated dishes. All the experiments were performed in quadruplicate.
# Akt and MEK1 = assay: Western blot of inhibitor treated and control cells one hour after plating on LN-521; assay type: cell-based, human; conditions: one hour after plating on LN-521, FIG. 18 and 19
# Protocol: HS 181 cells were trypsinized into single cell suspension as described above. For inhibition experiments, the cells were kept in O3 medium with blocking antibodies or pathway inhibitors for 30 minutes and then […] cells were plated on 35 mm dishes precoated with the appropriate matrix coating. For other experiments, same number of cells was plated directly after trypsinization. In all cases the cells were allowed to spread for 1 hour at 37° C., 5% CO2. After two washings in ice-cold PBS, the plates with cells were snap frozen in liquid nitrogen and stored at -80° C. To prepare samples for western blots and ELISA, the plates were slowly thawed and kept on ice with 100-150 μl of lysis buffer (50 mM Tris-HCl, pH7.5, 150 mM NaCl, 0.5% deoxycholate, 0.5% SDS, 1% Triton X-100, 1% Igepal, CompleteTM (Roche) and Phospho-StopTM (Roche)) on top. Then, the cells were scraped, pipetted and sheared through a 27 G 3⁄4'' needle. After that, the cell pellets were clarified by centrifugation at 16,100 rcf for 15 minutes at 4° C. For western blots, 4-12% gradient gels were used for SDS electrophoresis and the proteins were transferred to PVDF membranes. The membrane was hybridized with the antibody of interest according to the manufacturer's instructions. […] For the densitometry analysis the films were scanned at 2,400 dpi and analyzed by the […]5500 program (1 D-Multi Line densitometry mode). […]
# human ES cells [1] = assay: Cell survival assay, 24 hours (1 day) after plating from single cell suspension; assay type: cell-based; conditions: for survival / attachment of dissociated hES cells 24 hours (one day) after plating: single cell suspension, O3 medium, no ROCK inhibitor
# Protocol: (§2) The assay was performed as described (Extracellular Matrix Protocols, 2000). Briefly, 96-well plates were coated by extracellular matrix proteins as described above and blocked by O3 medium containing bovine serum albumin. The ES cells were plated at a cell density of 600 cell/mm^2 upon extracellular matrix-coated plates and were left to adhere for either 1 hour or 1 day at the cell incubator. Non-adherent cells were washed away, and adherent cells were fixed for 20 min by 5% glutaraldehyde, stained by 0.1% Crystal Violet.
# as §1
# Pluripotent hES cells express α1, α5, β1, β2 and γ1 laminin chains. To compare the adhesion and clonal survival of hES cells plated from single cell suspension to different coating substrata, hES cells growing as monolayers on LN-511 or as clusters on a feeder layer were trypsinized into single cell suspension in O3 medium and plated on cell culture dishes coated with Matrigel, LN-111, LN-511, LN-521 or a mixture of LN-511 and LN-521, in the absence or presence of a ROCK inhibitor (Y-27632) and analyzed after 24 hours.
# human ES cells [2] = assay: Cell adhesion assay, 1 hour after plating on coated plates; assay type: cell-based
# Protocol: as §2
# Briefly, 96-well plates were coated by extracellular matrix proteins as described above and blocked by O3 medium containing bovine serum albumin. The ES cells were plated at cell density of 50,000 cells/cm^2 onto extracellular matrix-coated plates and left to adhere for 1 hour in a cell incubator. After that the plates were washed 3 times with the medium to remove the non-adherent cells, and then the adherent cells were fixed for 20 minutes by 5% glutaraldehyde, stained by 0.1% Crystal Violet. (Kebo Lab, Spanga, Sweden, http://www.kebolab.se). After one hour and 3 washes with water, Crystal Violet was extracted with 10% acetic acid and quantified by measuring optical density at 570 nm. All the experiments were performed in quadruplicate.
# human ES and iPS cells = conditions: human ES cells grown on laminin-511; cited from earlier work
# mouse ES cells = conditions: without LIF or feeder cells; cited from earlier work
# hES cells = assay: Clonal survival of individualized hES cells at 250 cells per cm^2; assay type: cell-based, human; conditions: laminin-521/E-Cadherin matrix
# Protocol: hES cells were plated in mTeSR1 medium on different coatings at a density of 250 cells per cm^2 and monitored after 5 days in culture using an alkaline phosphatase staining kit.
# Next, combinations of laminin-521 and E-Cadherin were tested to determine whether the combinations could sustain clonal survival of the cells. Fixed amounts of laminin-521 were used for the cell culture dish coating in combination with titrated E-Cadherin.
# Additional tests were performed to test the effects of various modifications to the mTeSR1 medium. A mixture of E-Cadherin to laminin-521 in a ratio of about 1:10 w/w was used to coat the plates. […] Time-lapse photography of the cells confirmed that laminin-521/E-Cadherin coatings facilitated cell survival through proliferation of the single cells, not through the aggregation of different cells.
compound,measurement,setting,value
COc1cccc(-c2cc(=O)c3ccccc3o2)c1N [PD 98059],survival of hES cells 24 hours after plating on LN-521 with pathway inhibitor,human ES cells on LN-521,did not affect the survival that severely
same,efficacy of inhibitor treatment by western blot,Akt and MEK1,confirmed
C[C@@H](N)[C@H]1CC[C@H](C(=O)Nc2ccncc2)CC1 [Y-27632],attachment / survival of hES cells 24 hours after plating in presence of ROCK inhibitor,"human ES cells [1]; O3 medium with Y-27632, Matrigel, LN-111, LN-511, LN-521 and mixture coatings",remained attached on all 5 coatings; also recorded: survived on all surfaces
same,cell shape 24 hours after plating on LN-521,human ES cells [1]; absence or presence of ROCK inhibitor,spindle or crescent like shape
"LN-111: mouse laminin-111 (Invitrogen), indicated as LN-111 if not otherwise stated",survival / attachment of dissociated hES cells 24 hours (one day) after plating,human ES cells [1],did not survive; also recorded: almost no cells had survived
same,survival / attachment of dissociated hES cells 24 hours (one day) after plating,human ES cells [1]; listed as mouse laminin-111,almost no cells remained attached
"LN-121: human recombinant laminin of α1, β2 and γ1 chains from triple transfected HEK293 cells",survival / attachment of dissociated hES cells 24 hours (one day) after plating,human ES cells [1],failed to survive
LN-511: human recombinant laminin-511 coating,adhesion of human ES cells after 1 hour,"human ES cells [2]; O3 medium without any additives, without Y-27632, FIG. 6",roughly the same
same,spreading of the cells after one hour compared with Matrigel or LN-111,"human ES cells [2]; dissociated hES cells, not shown",clearly better
same,survival / attachment of dissociated hES cells 24 hours (one day) after plating,human ES cells [1],did so as single cells; also recorded: very few
same,survival / attachment of dissociated hES cells 24 hours (one day) after plating,human ES cells [1]; listed as human r-laminin-511,at a less extent
same,survival / attachment of dissociated hES cells 24 hours (one day) after plating,human ES cells [1]; listed as laminin-511,in most cases
same,time hES cells maintain pluripotency and can generate teratomas in SCID mice,human ES and iPS cells,over 3 months
same,time of self-renewal of mouse ES cells,mouse ES cells,over 5 months
albumin,effect of 2× increase in albumin concentration in mTeSR1 on clonal survival,hES cells,significantly improved clonal survival
"human recombinant LN-111: human recombinant laminin of α1, β1 and γ1 chains from triple transfected HEK293 cells",survival / attachment of dissociated hES cells 24 hours (one day) after plating,human ES cells [1],failed to survive
